Columns and labels:
[1] = Pharmacokinetic assessment; assay type: in vivo, mice; conditions: for AUC0-∞ / Cl/F / cmax / t1/2 / tmax: 17.46 mg/Kg
Excerpt: Experiment 2: Pharmacokinetic (PK) assessment. PK studies using the highest safe dose will be conducted on lead compounds that were functionally validated and for which a single dose NOAEL could be established (Aim 3A). These will be carried out by the Sanford Burnham Pharmacology Core (see attached LOS). While ip dosing may not be the preferred route of administration for an eventual cancer drug, these studies using ip dosing will give us data on many PK parameters, including bioavailability, which will be useful in prioritizing and triaging optimized compounds for testing using other routes, e.g., oral. PK parameters will be determined including Cmax (maximum plasma concentration), Tmax (time point of maximum concentration), VdSS (volume of distribution at steady-state), ClE (elimination clearance), AUC (area under the curve) t, (elimination half-life), and oral bioavailability (% F) will be obtained (with the inclusion of an i.v. dosed cohort). […] Our goal will be to identify a compound that has a plasma AUC >5× its cell viability EC50, a t1-2>2 hrs, and low-to-moderate clearance. […] Toxicology and pathology measures will be performed only after anti-tumor activity of lead SMIs will be determined, if compounds are found worthy of detailed study (Expt #3). This approach will maximize use of animals and resources. In brief, peripheral blood counts will be obtained; selected organs and tissues (lung, heart, liver, kidney, colon, bone marrow) will be harvested. Bone marrow cellularity and colony formation assay will be determined.

purified TG2 = molecular target: T1, purified TG2 (UniProt P08587); conditions: not shown, see ref 11; cited from earlier work
T1 construct: purchased Sigma T5398

[2] = tested on: SKOV3 cells adhesion onto LP9 monolayers; assay: Cell adhesion to LP9 mesothelial monolayers, SKOV3; assay type: cell-based; conditions: 25 μM
Protocol: LP9 mesothelial cells added to clear-bottom 96-well plate at 12,000 cells/well were grown to confluency over 48 hours (h). OC cells were labeled with calcein AM and seeded at a density of 4×10^4 cells to monolayers of mesothelial cells and incubated for 1 h. Non-adherent cells were removed by washing with PBS.

SKOV3 cells = assay: Wound-healing assay, SKOV3; assay type: cell-based; conditions: 8 μM, 24 hours
Protocol: Wound Healing was Performed in 12-Well Plates Coated with 1 μg/Ml FN (Sigma, #1141) overnight at 4° C. OC cells were plated at a density of 2×10^5 cells/well in media containing 2% FBS. Under these conditions cells adhered on substrate, but cell proliferation was minimized. After 16 hours, the cell monolayer was scraped in straight line. Cell debris was removed and serum free media containing selected SMIs or control was replenished. For consistency during image acquisition, a reference point was marked close to the scratch mark and the plate was imaged under phase-contrast microscope at 0, 2, 6, 12 and 24 hours. Wound closure was assessed as the distance between the wound edges, calculated and quantified using the Image Pro-Express software. The percentage of wound closure was evaluated using the formula […]. The rate of migration (μm/h) of OC cells into the wound space was evaluated as the distance difference between wound edges at 0 and 24 h, divided by 24. The experiments were performed in duplicates.

SKOV3-GFP cells = assay: In vivo cell attachment to the peritoneum; set-up: species or system mice; conditions: for unattached OC cells recovered from the peritoneal cavity: NSG mice, ip, 10 μg/kg, 2 hours after injection

T1 sequence (P08587 whole entry): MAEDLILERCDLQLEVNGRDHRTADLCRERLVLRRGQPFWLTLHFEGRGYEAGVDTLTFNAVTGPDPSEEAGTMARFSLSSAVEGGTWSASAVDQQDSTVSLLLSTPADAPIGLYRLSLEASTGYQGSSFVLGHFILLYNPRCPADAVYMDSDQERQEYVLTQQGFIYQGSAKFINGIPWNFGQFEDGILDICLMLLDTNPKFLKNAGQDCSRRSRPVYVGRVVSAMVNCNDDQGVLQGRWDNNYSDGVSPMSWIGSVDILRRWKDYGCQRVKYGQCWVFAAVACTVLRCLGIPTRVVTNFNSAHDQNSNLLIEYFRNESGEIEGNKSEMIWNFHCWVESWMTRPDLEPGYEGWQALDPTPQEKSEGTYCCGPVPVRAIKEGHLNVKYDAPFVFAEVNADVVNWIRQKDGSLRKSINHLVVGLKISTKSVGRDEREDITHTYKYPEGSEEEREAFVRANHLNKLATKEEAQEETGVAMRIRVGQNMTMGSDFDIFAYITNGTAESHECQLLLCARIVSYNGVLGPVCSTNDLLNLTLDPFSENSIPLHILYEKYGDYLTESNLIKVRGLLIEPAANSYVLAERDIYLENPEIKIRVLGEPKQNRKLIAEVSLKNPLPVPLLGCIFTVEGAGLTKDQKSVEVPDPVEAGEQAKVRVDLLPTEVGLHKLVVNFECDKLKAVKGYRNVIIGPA

SMILES	AUC0-∞ ([1]; IV) [µg·h/mL]	Cl/F ([1]; IV) [L/h]	cmax ([1]; IV) [ng/mL]	t1/2 ([1]; IV) [h]	tmax ([1]; IV) [h]	AUC0-∞ ([1]; i.p.) [µg·h/mL]	Cl/F ([1]; i.p.) [L/h]	cmax ([1]; i.p.) [ng/mL]	t1/2 ([1]; i.p.) [h]	tmax ([1]; i.p.) [h]	t/2 ([1]; ip administration) [h]	t/2 ([1]; iv administration) [h]	TG2 enzymatic activity (purified TG2)	SKOV3 cell binding to the mesothelial layer [2]	motility (scratch repair) (SKOV3 cells)	unattached OC cells recovered from the peritoneal cavity (SKOV3-GFP cells)	unattached OC cells recovered from the peritoneal cavity (SKOV3-GFP cells; listed as MT4)	adhesion of cancer cells to the peritoneum (SKOV3-GFP cells; nude mice, i.p., 2 hours)
COc1ccc(Cl)cc1C(=O)Nc1ccc(Nc2nc(C)cc(N(C)C)n2)cc1 [TG53]	2.913	0.12	4045	3.4	0	1.212	0.29	1313	19.5	0.5	19.5	3.4	did not inhibit	–	–	–	–	–
Cc1cc(N(C)C)nc(Nc2ccc(NC(=O)Cc3ccccc3)cc2)n1 [MT-4]	–	–	–	–	–	–	–	–	–	–	–	–	–	significantly decreased	inhibited	attached less efficiently	Increased numbers	prevented the adhesion

Reference: patent publication US20210276960A1, “INHIBITORS OF TISSUE TRANSGLUTAMINASE 2 (TG2) AND USES THEREOF” (Northwestern University, priority 2020, published 2021)
